The values below come from US10471035B2, “Compositions and methods for using esters of meroterpenes and of other resveratrol analogues” (Sunny BioDiscovery, priority 2014, dated 2019).

≈ marks a conversion by molar mass, not a printed value.

One data set concerns RAR. The data set is described as follows: Cignal RAR reporter assay. The class given is cell-based. The note with it: 0.3 μg/ml. The text has this:
(§1) Tissue irritation is a common side effect of retinoids. It is mediated, at least in part, by retinoid interaction with retinoic acid receptors (RARs; Thacher S M, Vasudevan J, Chandraratna R A. Therapeutic applications for ligands of retinoid receptors. Curr Pharm Des. 2000 January; 6(1):25-58; Kambayashi H, Odake Y, Takada K, Funasaka Y, Ichihashi M, Kato S. N-retinoyl-D-glucosamine, a new retinoic acid agonist, mediates topical retinoid efficacy with no irritation on photoaged skin. Br J Dermatol. 2005 December; 153 Suppl 2:30-6).

A further data set deals with adult HEK. The data set is described as follows: Adult HEK proliferation. The class given is cell-based, human. The settings on record: Homo sapiens; 2.5 μg/ml.
In data set [1] the test system is non-irradiated neonatal HDF. In words: Cytotoxicity on non-irradiated neonatal HDF monolayers. The note with it: 12.5 μg/ml. The class given is cell-based, human.
Another data set concerns 3T3 cells. The data set is described as follows: 3T3 Neutral Red phototoxicity (OECD 432). Format: cell-based. The protocol: Phototoxicity is defined as light-activated cytotoxicity. […] The protocol followed in this example was based on the OECD 432 Guidelines. Four 96 well plates were seeded with 3T3 cells (Sigma, St. Louis, Mo.; cat. 93061524-1VL) at 10,000 cells per well in DMEM supplemented with 10% iron-fortified calf serum, and grown overnight in humidified atmosphere at 37° C. in 5% CO2. Serial dilutions of SBD.SE and chlorpromazine (positive control) were added to 2 plates each. […]
[…] Plates were returned to the incubator for 24 h, afterward the medium was removed, cells were rinsed with PBS and placed in Neutral Red medium at 50 μg/ml in which cells were incubated for 3 more hours. Wells were then washed with PBS and Neutral Red was extracted from cells with 1.0% Glacial Acetic Acid/50% Ethanol/49% H2O solution.
Following a 30-minute extraction with mixing, the absorbance of each well was measured at 570 nm with Molecular Devices SpectraMax® microplate spectrophotometer. P values were calculated using two-tailed Student's test and p=0.05 was set as borderline for statistical significance.

Data set [2] deals with mouse melanoma cells (B16F10). The data set is described as follows: B16F10 melanoma growth and melanin. Format: cell-based. The note with it: Mus musculus, B16-F10; 2.5 μg/ml; read-out: inhibition of B16F10 melanocyte proliferation. The text has this:
Instead, cells cultured in the presence of SBD.SE grew slower and if allowed to reach monolayer, they become growth-arrested due to contact inhibition. […] Other retinoids, such as bexarotene, are known to have antineoplastic activity against cancers such as cutaneous T cell lymphoma.
The mechanism of action for this effect may be multifactorial and involve the inhibition of tyroinase and/or melanin secretion by melanocytes.

Data set [3] concerns UVB-irradiated neonatal human dermal fibroblasts (HDF). The data set is described as follows: MTT cytotoxicity on UVB-irradiated HDF. The class given is cell-based. The note with it: 10 μg/ml. The source says:
Retinoids are used to remediate the effects of photoaging, caused by exposure to solar radiation (Tierney, E. P., Hanke C. W., “Recent Advances in Combination Treatments for Photoaging: Review of the Literature,” Dermatol. Surg., 2010, 36:829-40). Therefore, we compared the effect of bakuchiol and SBD.FA on confluent cultures of UVB-irradiated neonatal human dermal fibroblasts (HDF). The total irradiation dose (150mJ/cm2) was biologically relevant, i.e., equivalent to doses received by humans exposed to midday, clear sky, midsummer sun for a moderate period of time (Besaratinia, A., Kim, S. I., Pfeifer, G. P., “Rapid repair of UVA-induced oxidized purines and persistence of UVB-induced dipyrimidine lesions determine the mutagenicity of sunlight in mouse cells,” FASEB J., 2008, 22(7):2379-92). […] Under these conditions, the cytotoxicity at the highest concentration tested (10 μg/ml) compared to the water-treated control was 36% for bakuchiol and 8% for SBD.FA, as determined by the MTT method (Berridge M. V., Tan A. S., “Characterization of the Cellular Reduction of 3-(4,5-dimethylthiazol-2-yl)-2,5-diphenyltetrazolium bromide (MTT): Subcellular Localization, Substrate Dependence, and Involvement of Mitochondrial Electron Transport in MTT Reduction,” Arch. Biochem. Biophys. 1993, 303:474-482), using Molecular Devices microplate spectrophotometer MAX190 at 570 nm.

For the next data set, the system named is P. acnes. In words: MIC against planktonic P. acnes. The settings on record: Cutibacterium acnes; exponentially-growing planktonic bacteria, oxygen-free atmosphere; read-out: MIC (minimal inhibitory concentration). The class given is cell-based, Propionibacterium acnes. The protocol:
Serial dilutions of SBD.SE and SBD.FA were incubated with exponentially-growing planktonic P. acnes bacteria in oxygen-free atmosphere.
The MIC (minimal inhibitory concentration) for SBD.SE was determined to be about 30 μg/ml and for SBD.FA—about 60 μg/ml.

Data set [4] in a line: DPPH assay (free radical scavenging). The class given is biochemical. The settings on record: 520 nm. The text has this: The objective of this experiment was to determine the antioxidant capacity of SBD.SE, using DPPH assay methodology. DPPH (2,2-diphenyl-1-picrylhydrazyl) is a stable free radical. The principle of the DPPH assay uses the reduction of the DPPH radical (purple) to diphenylpicrylhydrazine (yellow) as an indication of free radical scavenging capacity of a given test material (Schenk, G. H., Swieczkowski, N. K., “Colorimetric determination of pyrogallol and 2,6-dimethoxyphenol with diphenylpicrylhydrazyl,” Talanta, 1971, 18:230-4). Following the incubation of a test agent with DPPH solution, a reduction in absorbance at 520 nm compared to control is indicative of DPPH-scavenging. The degree of DPPH scavenging activity is expressed as % water control.
On the technique in general: Loss of DPPH colour is used to gauge radical scavenging.

Data set [5] is described as follows: UVB irradiation, HPLC-MS profile. Format: physicochemical. The note with it: irradiated vs non-irradiated. The text has this: Both compounds were irradiated with UVB light and their HPLC-MS profile was compared to their respective non-irradiated controls. FIGS. 2, 3, 6, and 7 show HPLC chromatograms of UVB-irradiated (lower portions) and non-irradiated samples (upper portions) of bakuchiol (FIGS. 2 and 3) and SBD.SE (FIGS. 6 and 7) detected at 254 nm (FIGS. 2 and 6) and 230 nm (FIGS. 3 and 7).

A further data set concerns EpiOcular™ tissue. In words: EpiOcular Eye Irritation Test (OCL-200-EIT). Format: cell-based, human. How it is done:
Also, the effect of SBD.SE on the epiocular system was investigated. Epiocular system consists of normal, human-derived epidermal keratinocytes, which have been cultured to form a stratified, squamous epithelium similar to that found in the cornea.
The effect of SBD.SE was assayed on the EpiOcular™ tissue, using the MatTek (Ashland, Mass.) EpiOcular™ Eye Irritation Test (OCL-200-EIT) protocol.
Based on the “depth of injury” model, the Epiocular EIT is intended to differentiate those materials that are non-irritants (would not require a warning label in the European chemical classification systems) from those that would require labeling as either GHS1 or 2. Consequentially, this test allows to distinguish those materials that would induce no damage or damage limited into the corneal epithelium from those that would damage/destroy the epithelium and continue damage into the stroma.
This protocol utilizes the MTT-based cytotoxicity readout as the experimental endpoint, and thus effectively measures the cytotoxicity of test materials. Biological duplicates are used for all calculations. SBD.SE was tested at 10% (100 mg/ml) in dimethyl isosorbide (DMI). The negative control was type I sterile water and the positive control was neat methyl acetate. The pre-incubation time I was 60 min., preincubation time II—overnight, treatment time—30 min., post-soak is 120 min, incubation time with MTT test was 3 h and the extraction was overnight. The extracted formazan was quantified with Molecular Devices microplate spectrophotometer MAX190 at 570 nm.
as §1

As for `CC1=C(/C=C/C(C)=C/C=C/C(C)=C/C(=O)O)C(C)(C)CCC1` [ATRA, all-trans retinoic acid, reference compound], the “increase of RAR-mediated transcription” value with RAR is 460%.
Consider `C=CC(C)(/C=C/c1ccc(OC(=O)/C=C/c2ccc(O)c(OC)c2)cc1)CCC=C(C)C` (stereo not shown) [SBD.FA], for which the inhibition at 2.5 µg/mL with adult HEK was 21%; in [2], 53%. For the same compound, the cytotoxicity in data set [1] (human) came to 8%. Besides, the “cytotoxicity in absence and presence of UVB light” value in the data set with 3T3 cells (up to at least 100 μg/ml) was “lack of significant cytotoxicity”. The “cytotoxicity compared to the water-treated control” value in data set [3] (human, 48 h) was 8%. Besides, the MIC in the data set on P. acnes was approximately 60 µg/mL (≈ 139 µM). Moreover, the “DPPH color (% Control)” value in data set [4] (0.5 ug/ml) is 102 % Control; in data set [4] (2 ug/ml), 99 % Control; in data set [4] (10 ug/ml) it was 60 % Control.
In data set [1] (monolayers formed before addition), `C=C[C@@](C)(/C=C/c1ccc(O)cc1)CCC=C(C)C` [bakuchiol, reference compound] came in with a cytotoxicity of 39%. Moreover, the “cytotoxicity compared to the water-treated control” value in data set [3] (UVB 150mJ/cm2, added 24 h before, terminated 24 h after irradiation, MTT) came out at 36%. Moreover, in data set [5], the “stability under UVB irradiation (HPLC-MS)” value was “disintegrates”. In addition, the figures for the “DPPH color (% Control)” value in data set [4] (0.5 ug/ml), in data set [4] (2 ug/ml) and in data set [4] (10 ug/ml) were 85 % Control, 92 % Control and 46 % Control, respectively.
Regarding `CN(C)CCCN1c2ccccc2Sc2ccc(Cl)cc21` [chlorpromazine, reference compound], in the data set on 3T3 cells (5 J/cm2, Neutral Red), the “times more toxic in the presence than in the absence of UVB light” value is given as “more than 10 times”.
As to `COC(C)=O` [methyl acetate, reference compound], in the data set on EpiOcular™ tissue (SBD.SE 10% (100 mg/ml) in DMI, methyl acetate neat, 30 min treatment, MTT), the “viability (% of water control)” value was found to be 44%. Besides, in the data set with EpiOcular™ tissue (positive control, as restated in Example 6), the “viability decrease as compared to water control” value is given as 36%.
